ChEMBL document CHEMBL1145356, “Discovery of new C3aR ligands. Part 1: arginine derivatives” (Bioorg Med Chem Lett, 2007)
pEC50, pIC50: −log10 of the molar value.

Assays:
[1] = biological target: T1, C3a anaphylatoxin chemotactic receptor (Homo sapiens, UniProt Q16581); experiment: Inhibition of human C3a receptor expressed on HMC1 cells by SPA assay; assay type: cell-based
T1 sequence (Q16581 whole entry): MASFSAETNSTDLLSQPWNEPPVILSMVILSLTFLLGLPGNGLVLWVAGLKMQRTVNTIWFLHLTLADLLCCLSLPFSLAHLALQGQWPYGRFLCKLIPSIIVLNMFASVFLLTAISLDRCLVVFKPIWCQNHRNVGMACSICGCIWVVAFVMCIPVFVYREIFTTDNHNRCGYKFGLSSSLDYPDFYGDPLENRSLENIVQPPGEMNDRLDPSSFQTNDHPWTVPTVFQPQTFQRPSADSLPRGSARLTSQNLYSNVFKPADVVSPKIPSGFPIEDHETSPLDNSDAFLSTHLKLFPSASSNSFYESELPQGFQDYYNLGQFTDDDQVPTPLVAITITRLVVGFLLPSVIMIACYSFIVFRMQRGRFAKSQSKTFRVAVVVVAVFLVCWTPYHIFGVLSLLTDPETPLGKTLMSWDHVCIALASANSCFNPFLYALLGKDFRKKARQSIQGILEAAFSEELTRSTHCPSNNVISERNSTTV

[2] = biological target: T1, C3a anaphylatoxin chemotactic receptor; experiment: Antagonist activity at C3aR; assay type: functional
[3] = biological target: T1, C3a anaphylatoxin chemotactic receptor; experiment: Agonist activity at C3a receptor expressed on HMC1 cells; assay type: functional, cell-based
[4] = Peak plasma concentration in ovalbumin-induced BALB/c mouse model of airway inflammation at 30 mg/kg, ip after 30 mins; assay type: ADME, organism-based; parameters: dose 30 mg/kg, route intraperitoneal
[5] = Bioavailability in rats at 1 mg/kg, po; assay type: ADME, organism-based; conditions: rat, in vivo
[6] = Metabolic clearance in rat liver microsomes; assay type: ADME, Microsome
CYP2D6 = CYP2D6 (Homo sapiens, UniProt P10635); experiment: Inhibition of CYP2D6 at 50 uM; assay type: ADME
[7] = Permeability from apical to basolateral side in Caco-2 cells; assay type: ADME, cell-based; conditions: human, read-out: permeability
[8] = Metabolic clearance in rat hepatocytes assessed per 10^6 cells; assay type: ADME, cell-based, Liver, Hepatocyte
[9] = Bioavailability in rats at 1 mg/kg, […]; assay type: ADME, organism-based; conditions: rat, in vivo
CYP3A4 = CYP3A4 (Homo sapiens, UniProt P08684); experiment: Inhibition of CYP3A4 at 50 uM; assay type: ADME
[10] = Peak plasma concentration in ovalbumin-induced BALB/c mouse model of airway inflammation at 3 mg/ml aerosol after 30 mins; assay type: ADME, organism-based; conditions: inhaled or intranasal

Sequence of CYP2D6 (P10635 whole entry): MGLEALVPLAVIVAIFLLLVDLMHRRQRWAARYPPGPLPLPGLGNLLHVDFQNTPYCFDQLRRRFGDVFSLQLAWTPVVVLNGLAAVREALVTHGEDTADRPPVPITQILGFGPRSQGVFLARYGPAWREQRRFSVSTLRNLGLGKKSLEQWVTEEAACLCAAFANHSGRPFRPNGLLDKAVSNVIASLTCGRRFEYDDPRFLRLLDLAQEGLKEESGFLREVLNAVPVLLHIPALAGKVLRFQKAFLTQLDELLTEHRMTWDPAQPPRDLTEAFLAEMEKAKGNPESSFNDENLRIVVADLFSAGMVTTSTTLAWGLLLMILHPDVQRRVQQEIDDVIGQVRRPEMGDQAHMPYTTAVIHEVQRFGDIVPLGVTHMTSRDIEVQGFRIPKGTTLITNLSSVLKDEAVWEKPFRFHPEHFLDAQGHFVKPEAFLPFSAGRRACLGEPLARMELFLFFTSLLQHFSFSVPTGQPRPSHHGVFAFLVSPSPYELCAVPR
Sequence of CYP3A4 (P08684 whole entry): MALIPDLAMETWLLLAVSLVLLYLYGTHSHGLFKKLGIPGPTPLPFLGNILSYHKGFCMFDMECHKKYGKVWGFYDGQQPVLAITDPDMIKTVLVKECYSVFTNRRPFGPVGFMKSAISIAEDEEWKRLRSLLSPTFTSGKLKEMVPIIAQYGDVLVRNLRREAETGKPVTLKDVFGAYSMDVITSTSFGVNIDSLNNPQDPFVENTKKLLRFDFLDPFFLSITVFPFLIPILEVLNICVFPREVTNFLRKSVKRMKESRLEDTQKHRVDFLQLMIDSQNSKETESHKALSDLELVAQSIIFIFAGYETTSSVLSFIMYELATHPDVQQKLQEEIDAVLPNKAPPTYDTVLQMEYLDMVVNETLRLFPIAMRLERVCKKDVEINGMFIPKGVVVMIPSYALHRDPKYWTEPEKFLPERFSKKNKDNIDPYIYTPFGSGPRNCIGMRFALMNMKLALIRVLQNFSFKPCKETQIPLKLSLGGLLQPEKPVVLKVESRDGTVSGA

Row | Structure (SMILES) | pIC50 [1] | other results
1 | N=C(N)NCCC[C@@H](NC(=O)c1ccc(-c2cc(Cl)ccc2Cl)o1)C(=O)O | 5.80 | –
2 | N=C(N)NCCC[C@@H](NC(=O)c1ccc(-c2cccc(CO)c2)o1)C(=O)O | 6.10 | –
3 | COc1cccc(-c2ccc(C(=O)N[C@H](CCCN=C(N)N)C(=O)O)o2)c1 | 6.50 | –
4 | N=C(N)NCCC[C@@H](NC(=O)c1ccc(C(c2cccc(F)c2)c2cccc(F)c2)o1)C(=O)O | 7.50 | pEC50 [2]: 5.90
5 | NC(N)=NCCC[C@@H](NC(=O)c1cccc(-c2cccc(Cl)c2)c1)C(=O)O | 6.10 | pEC50 [2]: 5.40
6 | NC(N)=NCCC[C@@H](NC(=O)c1ccc(-c2ccc(F)c(Cl)c2)o1)C(=O)O | 6.70 | –
7 | Cc1cccc(-c2ccc(C(=O)N[C@H](CCCNC(=N)N)C(=O)O)o2)c1 | 6.90 | –
8 | N=C(N)NCCC[C@@H](NC(=O)c1ccc(-c2cccc(Cl)c2)s1)C(=O)O | 5.20 | pEC50 [2]: 4.80
9 | N=C(N)NCCC[C@@H](NC(=O)c1ccc(C(c2cccc(Cl)c2)c2cccc(Cl)c2)o1)C(=O)O | 7.80 | pEC50 [3]: 7.70
10 | N=C(N)NCCC[C@@H](NC(=O)c1ccc(-c2cccc(F)c2)o1)C(=O)O | 6.50 | –
11 | Cc1ccc(Cl)cc1-c1ccc(C(=O)N[C@H](CCCN=C(N)N)C(=O)O)o1 | 6.10 | –
12 | N=C(N)NCCC[C@@H](NC(=O)c1ccc(C(c2ccccc2)c2ccccc2)cc1)C(=O)O | 6.10 | –
13 | CCOc1cccc(-c2ccc(C(=O)N[C@H](CCCN=C(N)N)C(=O)O)o2)c1 | 6.70 | –
14 | N#Cc1cccc(-c2ccc(C(=O)N[C@H](CCCNC(=N)N)C(=O)O)o2)c1 | 6.70 | –
15 | N=C(N)NCCC[C@H](NC(=O)c1ccc(C(c2ccccc2)c2ccccc2)o1)C(=O)O | – | Cmax [4]: 33800 ng/mL; bioavailability [5]: < 1%; microsomal CLint [6]: 4 µL/min/mg; inhibition at 50 µM (CYP2D6): 12%; Papp A→B [7]: 0.4 ×10⁻⁶ cm/s; hepatocyte CLint [8]: 5 µL/min/1e6 cells; bioavailability [9]: < 1%; inhibition at 50 µM (CYP3A4): 0%; Cmax [10]: 27 ng/mL
16 | N=C(N)NCCC[C@@H](NC(=O)c1ccc(-c2csc3ccccc23)o1)C(=O)O | 6.50 | –
17 | NC(N)=NCCC[C@@H](NC(=O)c1ccc(-c2cccc3c2oc2ccccc23)o1)C(=O)O | 5.40 | –
18 | N=C(N)NCCC[C@H](NC(=O)COCC(c1ccccc1)c1ccccc1)C(=O)O | 6.30 | –
19 | NC(N)=NCCC[C@@H](NC(=O)N1CCN(C(c2ccccc2)c2ccccc2)CC1)C(=O)O | 4.30 | –
20 | N=C(N)NCCC[C@@H](NC(=O)c1ccc(-c2cccc(Cl)c2)cc1)C(=O)O | 4.00 | –
21 | N=C(N)NCCC[C@@H](NC(=O)c1ccc(-c2cccc(Cl)c2)o1)C(=O)O | 7.10 | pEC50 [3]: 6.30
22 | NC(N)=NCCC[C@@H](NC(=O)c1ccc(C(c2ccc(Cl)cc2)c2ccc(Cl)cc2)o1)C(=O)O | 6.80 | pEC50 [3]: 6.90
